Experimental data: patent US7524832B2, “Combretastatin A-4 phosphate prodrug mono-and di-organic amine salts, mono-and di-amino acid salts and mono-and di-amino acid ester salts” (priority 2000, dated 2009)
Counter-ions that a name gives are not always drawn.

What was measured:
[1] = hygroscopicity (moisture sorption/desorption); type: physicochemical; conditions: 25° C., ambient and high humidity conditions
Description: The data was obtained using a VTI Model MB-300W Moisture balance with relative humidity levels from 10% to 90% in increments of 10%. The maximum equilibration time at each humidity was set at 4 hours.
As used herein, the term “nonhygroscopic”, in reference to a compound, preferably denotes no measurable weight gain per weight of compound as measured above.
This was an unexpected result, because other salt forms of CA4P free acid are hygroscopic under similar conditions. Variable relative humidity-X-ray diffraction (“RH-XRD”) experiments have shown that the powder pattern remains unchanged on exposure to different humidities at 25° C.

[2] = solid-state chemical stability; type: physicochemical; conditions: ambient and accelerated conditions of temperature and humidity
physchem = conditions: 25 °C, thermodynamic from solid
[3] = system: murine L1210 lymphocytic leukemia cell line; conditions: NCI murine L1210; cited from earlier work
[4] = system: murine P338 lymphocytic leukemia cell line; conditions: NCI murine P338; cited from earlier work
microtubulin assembly = conditions: cited from earlier work
[5] = cited from earlier work

SMILES: COc1ccc(/C=C\c2cc(OC)c(OC)c(OC)c2)cc1OP(=O)(O)O [CA4P mono TRIS salt, CA4P mono-tromethamine salt]
- hygroscopicity [1]: practically nonhygroscopic
- chemical stability in the solid-state [2]: good chemical stability
- solubility (physchem; pH 4.8, water): 3.37 mg/mL
- solubility (physchem; pH 8.2, aqueous buffer): 191 mg/mL

SMILES: COc1ccc(/C=C\c2cc(OC)c(OC)c(OC)c2)cc1O [combretastatin A-4]
- activity against L1210 lymphocytic leukemia cell line [3]: significantly active
- activity against P338 lymphocytic leukemia cell line [4]: significantly active
- inhibition of microtubulin assembly (microtubulin assembly): potent inhibitor
- solubility in water [5]: essentially insoluble in water
